Usually IC50 stands for the concentration that inhibits the measured activity by half.

The target of the first assay is T1, uterine OT receptors (Rattus norvegicus, UniProt P70536).
T1 construct: from tissue; host or cells: uterus of diethylstilbestrol dipropionate (DES)-treated rats, crude membrane preparation
T1 sequence (P70536 1-388): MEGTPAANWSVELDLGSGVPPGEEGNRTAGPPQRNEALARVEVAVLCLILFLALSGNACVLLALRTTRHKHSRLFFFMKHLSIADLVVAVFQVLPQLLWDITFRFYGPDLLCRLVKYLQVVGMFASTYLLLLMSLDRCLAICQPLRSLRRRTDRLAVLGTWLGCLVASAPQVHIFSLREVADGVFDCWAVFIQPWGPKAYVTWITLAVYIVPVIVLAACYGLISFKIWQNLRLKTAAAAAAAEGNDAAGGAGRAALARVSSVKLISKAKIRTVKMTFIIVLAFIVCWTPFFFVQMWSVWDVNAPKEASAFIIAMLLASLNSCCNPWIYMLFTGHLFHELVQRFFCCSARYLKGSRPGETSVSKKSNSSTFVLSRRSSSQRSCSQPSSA
The assay can be described thus: [3H]Oxytocin (OT) radioligand binding to uterine OT receptors, crude uterine membranes from DES-treated rats.
Conditions: not given
The protocol:
Competition studies were conducted at equilibrium (60 minutes; 22° C.) using 1 nM[^3 H]OT in the following assay buffer: 50 mM Tris-HCl, 5 mM MgCl2, and 0.1% BSA, pH 7.4. Nonspecific binding (10% of the total binding) was determined using 1 μM unlabeled OT and the binding reaction was terminated by filtration through glass fiber filters using a cell harvester (model 7019, Skatron, Inc., Sterling, Va.).
IC50 values were determined for the [^3 H]OT and [^3 H]AVP binding assays by linear regression of the relation log concentration of compound vs. percent inhibition of specific binding. Data is either reported as a given percentage of inhibition at a specified concentration,or if an IC50 was calculated, as a nanomolar concentration.
Turning to `O=C(/C=C/c1ccccc1)N1CCC(N2C(=O)OCc3ccccc32)CC1` [Example 7, 1-(1-(Cinnamoyl)piperidin-4-yl)-1,2-dihydro-4(H)-3,1-benzoxazin-2-one], the IC50 is 6200 nM.
Still for that read-out and setting: under `CC(=O)N(C)CCCOc1ccc(C(=O)N2CCC(N3C(=O)OCc4ccccc43)CC2)cc1` [Example 24, 1-(1-(4-(3-(N-Methyl(acetylamino))propoxy)benzoyl)piperidin-4-yl)-1,2-dihydro-4(H)-3,1-benzoxazin-2-one] stands 550 nM.
Take `COc1cc(OC2CCN(C(=O)CCCN)CC2)ccc1C(=O)N1CCC(N2C(=O)OCc3ccccc32)CC1` [Example 30, 1-(1-(4-(1-(4-Aminobutanoyl)-4-piperidinyloxy)-2-methoxybenzoyl)piperidin-4-yl)-1,2-dihydro-4(H)-3,1-benzoxazin-2-one]: the IC50 turned out to be 69 nM.
In turn, `COc1cc(OCCCNC(=O)C2CCNCC2)ccc1C(=O)N1CCC(N2C(=O)OCc3ccccc32)CC1` [Example 14, 1-(1-(4-(3-(4-Piperidinylcarbonylamino)propoxy)-2-methoxybenzoyl)piperidin-4-yl)-1,2-dihydro-4(H)-3,1-benzoxazin-2-one] yielded an IC50 of 74 nM.
The same measure, in the same setting: under `COc1ccc(C(=O)N2CCC(N3C(=O)Cc4ccccc43)CC2)c(OC)c1` [Example 55, 1-(1-(2,4-dimethoxybenzoyl)-4-piperidyl)indol-2-one] stands 6200 nM; under `COc1cc(OC2CCN(S(=O)(=O)CCCN(C)C3CC3)CC2)ccc1C(=O)N1CCC(N2C(=O)OCc3ccccc32)CC1` [Example 66, 1-(1-(4-(1-((3-N-Cyclopropyl-N-methylamino)propylsulfonyl)piperidin-4-yloxy)-2-methoxybenzoyl)piperidin-4-yl)-1,2-dihydro-4(H)-3,1-benzoxazin-2-one], 25 nM; under `COc1cc(OCCCN2C(=O)CN(C)C2=O)ccc1C(=O)N1CCC(N2C(=O)OCc3ccccc32)CC1` [Example 22, 1-(1-(4-(3-(1-Methylimidazoline-2,4-dione-3-yl)propoxy)-2-methoxybenzoyl)piperidin-4-yl)-1,2-dihydro-4(H)-3,1-benzoxazin-2-one], 260 nM.
For the compound `COc1cc(OCCCN)ccc1C(=O)N1CCC(N2C(=O)OCc3ccccc32)CC1` [Example 12, 1-(1-(4-(3-Aminopropoxy)-2-methoxybenzoyl)piperidin-4-yl)-1,2-dihydro-4(H)-3,1-benzoxazin-2-one], the IC50 stood at 410 nM.
`COc1cc(OC2CCN(C(=O)Cc3cnc[nH]3)CC2)ccc1C(=O)N1CCC(N2C(=O)OCc3ccccc32)CC1` [Example 45, 1-(1-(4-(1-(4(5)-Imidazolylacetyl)-4-piperidinyloxy)-2-methoxybenzoyl)piperidin-4-yl)-1,2-dihydro-4(H)-3,1-benzoxazin-2-one] gave a concentration for half-maximal inhibition (IC50) of 44 nM.
Same read-out and setting: under `COc1ccc(C(=O)N2CCC(N3C(=O)OCc4ccccc43)CC2)c([N+](=O)[O-])c1` [Example 44, 1-(1-(4-Methoxy-2-nitrobenzoyl)piperidin-4-yl)-1,2-dihydro-4(H)-3,1-benzoxazin-2-one] stands 5000 nM; under `CCOC(=O)CN1CCC(Oc2ccc(C(=O)N3CCC(N4C(=O)OCc5ccccc54)CC3)c(OC)c2)CC1` [Example 48, 1-(1-(4-(1-(Ethoxycarbonylmethyl)-4-piperidinyloxy)-2-methoxybenzoyl)piperidin-4-yl)-1,2-dihydro-4(H)-3,1-benzoxazin-2-one], 340 nM.
The same measure, in the same setting: then `CCN(CC)CCS(=O)(=O)N1CCC(Oc2ccc(C(=O)N3CCC(N4C(=O)OCc5ccccc54)CC3)c(OC)c2)CC1` [Example 46, 1-(1-(4-(1-(Diethylaminoethylsulfonyl)-4-piperidinyloxy)-2-methoxybenzoyl)piperidin-4-yl)-1,2-dihydro-4(H)-3,1-benzoxazin-2-one], with 23 nM.
Same read-out and setting: under `O=C(c1ccc(OC2CCNCC2)cc1Cl)N1CCC(N2C(=O)OCc3ccccc32)CC1` [Example 52, 1-(1-(4-(4-Piperidinyloxy)-2-chlorobenzoyl)piperidin-4-yl)-1,2-dihydro-4(H)-3,1-benzoxazin-2-one] stands 4300 nM; under `COc1cc(OCCCNS(C)(=O)=O)ccc1C(=O)N1CCC(N2C(=O)OCc3ccccc32)CC1` [Example 17, 1-(1-(4-(3-((Methylsulfonyl)amino)propoxy)-2-methoxybenzoyl)piperidin-4-yl)-1,2-dihydro-4(H)-3,1-benzoxazin-2-one], 81 nM.
Consider `COc1cc(OCCCNC(=O)C2CCNCC2)c(Cl)cc1C(=O)N1CCC(N2C(=O)OCc3ccccc32)CC1` [Example 15, 1-(1-(4-(3-(4-Piperidinylcarbonylamino)propoxy)-6-methoxy-3-chlorobenzoyl)piperidin-4-yl)-1,2-dihydro-4(H)-3,1-benzoxazin-2-one], for which the IC50 is 56 nM.
The same measure, in the same setting: then `O=C(Nc1ccc(CC(=O)N2CCC(N3C(=O)OCc4ccccc43)CC2)cc1)c1ccc2[nH]cnc2c1` [Example 9, 1-(1-(4-((5-Benzimidazolylcarbonyl)amino)phenylacetyl)piperidin-4-yl)-1,2-dihydro-4(H)-3,1-benzoxazin-2-one], with 280 nM.

Staying with this assay, now noted: competition vs 1 nM [3H]OT, 60 minutes, 22° C., pH 7.4, rat uterus membranes; read-out: Result For [3H]OT (IC50).
On to `COc1ccc(C(=O)N2CCC(N3C(=O)OCc4sccc43)CC2)c(OC)c1` [Example 63, 1-(1-(2,4-dimethoxybenzoyl)piperidin-4-yl)-1,2-dihydro-4 (H)-3,1-thienoxazin-2-one], for which the 50% inhibitory concentration (IC50) was found to be 590 nM.

Still in this assay, the particulars now being: inhibition at 1,000 nM; 1 nM [3H]OT, 60 minutes, 22° C., pH 7.4; read-out: Result For [3H]OT (% inhib. at 1,000 nM).
Regarding `CC(C)(C)OC(=O)N1CCC(C(=O)NCCCOc2ccc(C(=O)N3CCC(N4C(=O)OCc5ccccc54)CC3)c(O)c2)CC1` [Example 49, 1-(1-(4-(3-(N-t-Butyloxycarbonylpiperidin-4-ylcarbonylamino)propoxy)-2-hydroxybenzoyl)piperidin-4-yl)-1,2-dihydro-4(H)-3,1-benzoxazin-2-one], the inhibition at 1 µM stood at 72%.
Same read-out and setting: under `COc1cc(C(=O)N2CCN(C(=O)OC(C)(C)C)CC2)ccc1C(=O)N1CCC(N2C(=O)OCc3ccccc32)CC1` [Example 39, 1-(1-(4-(4-(t-Butyloxycarbonyl)piperazin-1-ylcarbonyl)-2-methoxybenzoyl)piperidin-4-yl)-1,2-dihydro-4(H)-3,1-benzoxazin-2-one] stands 46%.
On the same count and under the same terms, under `COc1cc(OC2CCN(C(=O)OC(C)(C)C)CC2)ccc1C(=O)N1CCC(N2C(=O)COc3ccccc32)CC1` [Example 41, 4-(1-(4-(4-(1-t-Butyloxycarbonyl)piperidinyloxy)-2-methoxybenzoyl)piperidin-4-yl)-(2H)-1,4-benzoxazin-3(4H)-one] stands 42%.
Turning to `Cc1cc(OC2CCN(C(=O)OC(C)(C)C)CC2)ccc1C(=O)N1CCC(N2C(=O)OCc3ccccc32)CC1` [Example 43, 1-(1-(4-(N-t-Butoxycarbonyl-4-piperidinyloxy)-2-methylbenzoyl)piperidin-4-yl)-1,2-dihydro-4(H)-3,1-benzoxazin-2-one], the inhibition at 1 µM is 59%.

Staying with this assay, now noted: inhibition at 10,000 nM; 1 nM [3H]OT, 60 minutes, 22° C., pH 7.4; read-out: Result For [3H]OT (% inhib. at 10,000 nM).
Turning to `COc1ccc(C(=O)N2CCC(N3C(=O)OCc4ccccc43)CC2C#N)c(OC)c1` (centres unmarked) [Example 60, 1-(1-(2,4-dimethoxybenzoyl)-2-cyanopiperidin-4-yl)-1,2-dihydro-4(H)-3,1-benzoxazin-2-one], the inhibition at 10 µM was 70%.
`COc1cc(OC)c(C(=O)N2CCC(N3C(=O)OCc4ccccc43)CC2)c(OC)c1` [Example 1]: the inhibition at 10 µM came to 61%.
On the same count and under the same terms, under `COc1ccc(C(=O)N2CCC(N3C(=O)OC(C)(C)c4ccccc43)CC2)c(OC)c1` [Example 61, 1-(1-(2,4-dimethoxybenzoyl)piperidin-4-yl)-4,4-dimethyl-1,2-dihydro-4(H)-3,1-benzoxazin-2-one] stands 64%; under `O=C(c1cc2ccccc2[nH]1)N1CCC(N2C(=O)OCc3ccccc32)CC1` [Example 4], 78%.
For `COc1ccc(C(=O)N2CCC(N3C(=O)N(C)Cc4ccccc43)CC2)c(OC)c1` [Example 36, 1-(2,4-Dimethoxybenzoylpiperidin-4-yl)-3,4-dihydro-3-methylquinazolin-2(1H)-one], the inhibition at 10 µM stood at 48%.
Turning to `O=C(c1ccc(OCC2CCCNC2)cc1)N1CCC(N2C(=O)OCc3ccccc32)CC1` (centres unmarked) [Example 32, 1-(1-(4-(3-Piperidinylmethoxy)benzoyl)piperidin-4-yl)-1,2-dihydro-4(H)-3,1-benzoxazin-2-one], the inhibition at 10 µM stood at 78%.
The same measure, in the same setting: under `COc1ccc(C(=O)N2CC(N3C(=O)OCc4ccccc43)C2)c(OC)c1` [Example 57, 1-(1-(2,4-Dimethoxybenzoyl)azetidin-3-yl)-1,2-dihydro-4(H)-3,1-benzoxazin-2-one] stands 54%; under `O=C(c1ccccn1)N1CCC(N2C(=O)OCc3ccccc32)CC1` [Example 3], 40%.

These data come from patent publication US5665719A, “Benzoxazinone and benzopyrimidinone piperidinyl tocolytic oxytocin receptor antagonists” (Merck & Co., Inc., priority 1995, dated 1997).
